Assay results: ChEMBL document CHEMBL1201862, “PubChem BioAssay data set” (2004)
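Dose response: 5 concentrations. Exposure: 48 h. Format: 96-well plates. Endpoint: linear interpolation; highest concentration if not reached. GI50 marks 50% less growth.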 The source made the active and inactive calls. Rule as the data show it: active = GI50 up to about 1.1 µM and inactive = higher.

Legend:
Test in all cases: inhibition of tumour cell growth, NCI panel, 48 h
CCRF-CEM = system: CCRF-CEM
HOP-62 = system: HOP-62
SR = system: SR
NCI-H460 = system: NCI-H460
SK-MEL-5 = system: SK-MEL-5
SK-MEL-2 = system: SK-MEL-2
IGROV-1 = system: IGROV-1
OVCAR-8 = system: OVCAR-8
SF-268 = system: SF-268
HCT-116 = system: HCT-116
OVCAR-4 = system: OVCAR-4
T47D = system: T47D
HCC 2998 = system: HCC 2998
SNB-19 = system: SNB-19
A498 = system: A498
HOP-92 = system: HOP-92
CAKI-1 = system: CAKI-1
A549 = system: A549
OVCAR-5 = system: OVCAR-5
Malme-3M = system: Malme-3M

| Structure (SMILES) | GI50 (CCRF-CEM) | GI50 (HOP-62) | GI50 (SR) | GI50 (NCI-H460) | GI50 (SK-MEL-5) | GI50 (SK-MEL-2) | GI50 (IGROV-1) | GI50 (OVCAR-8) | GI50 (SF-268) | GI50 (HCT-116) | GI50 (OVCAR-4) | GI50 (T47D) | GI50 (HCC 2998) | GI50 (SNB-19) | GI50 (A498) | GI50 (HOP-92) | GI50 (CAKI-1) | GI50 (A549) | GI50 (OVCAR-5) | GI50 (Malme-3M) |
| --- | --- | --- | --- | --- | --- | --- | --- | --- | --- | --- | --- | --- | --- | --- | --- | --- | --- | --- | --- | --- |
| CCOC(=O)c1c(NC(=O)Nc2ccccc2)c(C(N)=O)c2n1CCCCC2 | > 100 µM (inactive) | > 100 µM (inactive) | > 100 µM (inactive) | > 100 µM (inactive) | > 100 µM (inactive) | > 100 µM (inactive) | > 100 µM (inactive) | > 100 µM (inactive) | > 100 µM (inactive) | > 100 µM (inactive) | > 100 µM (inactive) | > 100 µM (inactive) | > 100 µM (inactive) | > 100 µM (inactive) | > 100 µM (inactive) | > 100 µM (inactive) | > 100 µM (inactive) |  |  |  |
| CC(=O)O[C@H]1C[C@]2(C)C(CCC3O[C@@]32C)[C@@]2(CC(c3ccoc3)OC2O)[C@@H]1C (some centres not stated) | 30.7 µM (inactive) |  | 39.2 µM (inactive) | 60.8 µM (inactive) | 50 µM (inactive) | > 100 µM (inactive) | > 100 µM (inactive) | > 100 µM (inactive) | > 100 µM (inactive) | 60.8 µM (inactive) | 41 µM (inactive) | 39.3 µM (inactive) | > 100 µM (inactive) | > 100 µM (inactive) | > 100 µM (inactive) | > 100 µM (inactive) | > 100 µM (inactive) | > 100 µM (inactive) | > 100 µM (inactive) |  |
| CN1CC2=C(N=C(S)NC2c2ccccc2)/C(=C/c2ccccc2)C1 (configuration not stated) | 31.1 µM (inactive) | > 100 µM (inactive) | 30.4 µM (inactive) | 32.1 µM (inactive) | 27.7 µM (inactive) | 45.9 µM (inactive) | 24.5 µM (inactive) | > 10 µM (inactive) | > 100 µM (inactive) | 13 µM (inactive) |  | 44.8 µM (inactive) | 29.3 µM (inactive) | > 100 µM (inactive) | 89.7 µM (inactive) |  | > 100 µM (inactive) | 30.3 µM (inactive) | > 100 µM (inactive) | 30.1 µM (inactive) |
| CC1(C)OC2COC3([C@@H]4OC(C)(C)O[C@@H]4CO)OC(C)(C)OC3C2O1 (some centres not stated) | > 100 µM (inactive) | > 100 µM (inactive) | > 100 µM (inactive) | > 100 µM (inactive) | > 100 µM (inactive) | > 100 µM (inactive) | > 100 µM (inactive) | > 100 µM (inactive) |  | > 100 µM (inactive) | > 100 µM (inactive) | > 100 µM (inactive) | > 100 µM (inactive) | > 100 µM (inactive) | > 100 µM (inactive) | > 100 µM (inactive) | > 100 µM (inactive) | > 100 µM (inactive) | > 100 µM (inactive) |  |
| COC1=C(C)C(=O)c2c(c(COC(N)=O)c3n2CC2C3N2C)C1=O (configuration not stated) | 0.0154 µM (active) | < 0.01 µM (active) | < 0.01 µM (active) | < 0.01 µM (active) | 0.0209 µM (active) | 0.0361 µM (active) | 0.0425 µM (active) | < 0.0191 µM (active) | 0.0256 µM (active) | < 0.0125 µM (active) | 0.0826 µM (active) | 0.0301 µM (active) |  | < 0.0115 µM (active) | 0.0519 µM (active) | 0.148 µM (active) | < 0.01 µM (active) | < 0.01 µM (active) | 0.0313 µM (active) | 0.0495 µM (active) |
| N#CC1(C#N)N[C@@H](c2ccsc2)[C@H]2C(=O)N(c3ccccc3)C(=O)[C@H]21 |  | > 100 µM (inactive) | 21.3 µM (inactive) |  | 35.4 µM (inactive) | > 100 µM (inactive) | 60.7 µM (inactive) | > 100 µM (inactive) | 84.5 µM (inactive) | 79.1 µM (inactive) |  | 63.2 µM (inactive) |  |  | 26.4 µM (inactive) | 65.2 µM (inactive) | 43 µM (inactive) | > 100 µM (inactive) |  | > 100 µM (inactive) |
| Nc1ccn(C2OC(CO)C(O)C2(F)F)c(=O)n1 (configuration not stated) |  | 0.0867 µM (active) | 0.158 µM (active) | 0.0504 µM (active) | 0.436 µM (active) |  | 0.301 µM (active) | 0.051 µM (active) | 0.226 µM (active) | 0.0579 µM (active) |  | 0.387 µM (active) | 0.728 µM (active) | 0.129 µM (active) | 0.186 µM (active) | 0.462 µM (active) | 0.108 µM (active) | 0.055 µM (active) | 0.547 µM (active) | 0.63 µM (active) |
| Cc1cn(C2CCN(CC3COC(C)(C)O3)O2)c(=O)[nH]c1=O (configuration not stated) | > 100 µM (inactive) | > 100 µM (inactive) | > 100 µM (inactive) | > 100 µM (inactive) | > 100 µM (inactive) | > 100 µM (inactive) | > 100 µM (inactive) | > 100 µM (inactive) | > 100 µM (inactive) | > 100 µM (inactive) | > 100 µM (inactive) | > 100 µM (inactive) |  |  | > 100 µM (inactive) | > 100 µM (inactive) | > 100 µM (inactive) | > 100 µM (inactive) | > 100 µM (inactive) | > 100 µM (inactive) |
| CCOC(=O)c1ccc(Nc2nc3cc(C(F)(F)F)ccc3nc2C(=O)OCC)cc1 | > 100 µM (inactive) | 22 µM (inactive) | > 100 µM (inactive) | 74.3 µM (inactive) | 28.3 µM (inactive) |  | > 100 µM (inactive) | 51.6 µM (inactive) | 97.1 µM (inactive) | 34.2 µM (inactive) |  | 69.3 µM (inactive) | 22.1 µM (inactive) | 22.6 µM (inactive) | 36.6 µM (inactive) | 50 µM (inactive) | 23.5 µM (inactive) | 39.6 µM (inactive) | > 100 µM (inactive) |  |
| Cc1c(Cl)nc(Nc2nc3ccccc3[nH]2)nc1Cl |  |  | 19.9 µM (inactive) | > 100 µM (inactive) | > 100 µM (inactive) | > 100 µM (inactive) | 36.2 µM (inactive) | 41.7 µM (inactive) | 47.6 µM (inactive) | > 100 µM (inactive) | 29 µM (inactive) | 43.7 µM (inactive) |  | > 100 µM (inactive) | > 100 µM (inactive) | 2.06 µM (inactive) | 6.71 µM (inactive) | > 100 µM (inactive) | > 100 µM (inactive) | > 100 µM (inactive) |
| CCOC(=O)[C@@H]1ON2OC(OC3CCCC3(c3ccccc3)c3ccccc3)C(OC(C)=O)[C@H]3OC(=O)[C@@H]1C32 (some centres not stated) | 29.2 µM (inactive) | > 100 µM (inactive) | > 100 µM (inactive) | > 100 µM (inactive) | 42.9 µM (inactive) | 68.7 µM (inactive) | > 100 µM (inactive) | > 100 µM (inactive) | > 100 µM (inactive) | 29.6 µM (inactive) |  | 46.6 µM (inactive) | 35.1 µM (inactive) | > 100 µM (inactive) | > 100 µM (inactive) | > 100 µM (inactive) | > 100 µM (inactive) | 47.2 µM (inactive) |  |  |
| OCC(Cn1cncn1)(c1ccc(F)cc1F)n1cncn1 (configuration not stated) | > 100 µM (inactive) | > 100 µM (inactive) | > 100 µM (inactive) | > 100 µM (inactive) | > 100 µM (inactive) | > 100 µM (inactive) | > 100 µM (inactive) | > 100 µM (inactive) | > 100 µM (inactive) | > 100 µM (inactive) |  | > 100 µM (inactive) | > 100 µM (inactive) | > 100 µM (inactive) | 38.5 µM (inactive) |  | > 100 µM (inactive) | > 100 µM (inactive) | > 100 µM (inactive) | > 100 µM (inactive) |
| CC(=O)CCCCC(=O)Nc1ccc(CC(NC(=O)OC(C)(C)C)C(=O)NCC(=O)OCc2ccccc2)cc1 (configuration not stated) |  | 13.8 µM (inactive) | 22.2 µM (inactive) | 20.7 µM (inactive) | 14.7 µM (inactive) |  | 33.3 µM (inactive) | 20 µM (inactive) | 22.4 µM (inactive) | 19.6 µM (inactive) | 13.7 µM (inactive) | 19.9 µM (inactive) | 16.4 µM (inactive) | 21.9 µM (inactive) | 23.1 µM (inactive) | 29.1 µM (inactive) | 15.7 µM (inactive) | 53.7 µM (inactive) | 63.4 µM (inactive) | 19.3 µM (inactive) |
| O=C(NNC(=O)c1ccco1)c1ccco1 | > 100 µM (inactive) | > 100 µM (inactive) | > 100 µM (inactive) | > 100 µM (inactive) | > 100 µM (inactive) | > 100 µM (inactive) | > 100 µM (inactive) | > 100 µM (inactive) | > 100 µM (inactive) | > 100 µM (inactive) | > 100 µM (inactive) | > 100 µM (inactive) |  | > 100 µM (inactive) | > 100 µM (inactive) |  | > 100 µM (inactive) | > 100 µM (inactive) | > 100 µM (inactive) | 39.6 µM (inactive) |
| O=C(NC(=S)Nc1ccc([N+](=O)[O-])cc1)c1ccc2c(c1)Sc1ccccc1O2 | > 100 µM (inactive) | 78.5 µM (inactive) | > 100 µM (inactive) | > 100 µM (inactive) | > 100 µM (inactive) | 99.1 µM (inactive) | 98.2 µM (inactive) | > 100 µM (inactive) | 30.2 µM (inactive) | > 100 µM (inactive) |  | 24.6 µM (inactive) |  | 53.3 µM (inactive) | > 100 µM (inactive) | 37.3 µM (inactive) | > 100 µM (inactive) | > 100 µM (inactive) | > 100 µM (inactive) | 65.8 µM (inactive) |
